Data from US8007782B2, “Combination bacteriolytic therapy for the treatment of tumors” (priority 2003, dated 2011).
Where a SMILES comes first, the peptide text is derived from it. [ ]: non-standard residue; d: D form. The star is where a group is joined. Dolaproine = CO[C@@H]([C@@H]1CCCN1)[C@@H](C)C(=O)O; Dil = CC[C@H](C)[C@H](NC)[C@@H](CC(=O)O)OC; NMe2Val = CC(C)[C@@H](C(=O)*)N(C)C

Columns and labels:
[1] = test system: HCT116 human colorectal cancer cells; assay: Tumorigenicity assay, HCT116 xenografts in nude mice; type: in vivo; conditions: for Effect with C. novyi-NT / Effect alone: nude mice; for Effect alone: agent alone
Text: (§1) All animal protocols were designed in accordance with the Guide for the Care and Use of Laboratory Animals (NIH Publication 86-23) and were approved by the Johns Hopkins University Institutional Animal Care and Use Committee. Six to eight week old mice were implanted subcutaneously on one flank with 3 to 6 million cancer cells. Establishment of tumors of 150 to 500 mm3 took 8 to 21 days, depending on the cell type. C. novyi-NT spores (300×106) and anti-microtubule agents were generally administered by a single intravenous injection through the tail vein in a total volume of 300 to 500 ul phosphate-buffered saline (PBS). Quantitative assessment of tumor growth was performed by measuring subcutaneous tumor grafts (major and minor axis) using electronic calipers. Tumor volume was calculated using the equation: length×width2×0.5. Progression free survival was defined as the length of time following treatment before any increase in tumor volume was observed. Mice were considered “cured” if no tumor was evident three months after treatment. Animals were weighed at least twice a week and carefully observed for signs of toxicity every day for the first week following treatment and then twice a week thereafter. At least five mice were used for each treatment arm described in the Experimental Results.
The timing, route, and dose of agents are critical for the success of any experimental therapy. When two agents are combined, the number of variables that must be tested increases exponentially. To simplify interpretation of the comparisons between various anti-microtubule agents, pilot studies with representative drugs were performed.
Eighteen agents known to interact with microtubules were each tested in this manner in nude mice harboring xenografts of HCT116 human colorectal cancer cells. At least five mice harboring tumors of 150 to 500 mm3 in size were used for each experimental arm. Two classes of responses were noted. One type of response was characterized by a rapid hemorrhagic necrosis, observed only with agents that inhibited microtubule […] (FIG. 1A, B). The other type of response was characterized by a slow regression, observed with agents that stabilized microtubules (FIG. 2A, B).

[2] = test system: HCT116, HuCC-T1, HT-29, SW480, B16 and DLD-1 tumors; assay: Low dose HTI-286 and L-NNA on various xenografts (FIG. 10); type: in vivo, mice; conditions: HTI-286 1 mg/kg without L-NNA; L-NNA 10 mg/kg without HTI-286
Text: FIG. 10A-10F Quantification of the effects of C. novyi-NT plus low doses of HTI-286 and L-NNA on various xenografts (HCT116, HuCC-T1, HT-29, SW480, B16, and DLD-1, respectively).
[…] […] The p-values are based on comparisons between L-NNA+HTI-286 and L-NNA+HTI-286+C. novyi-NT spores. The p-value is indicated only when the result was statistically significant.
All animal protocols were designed in accordance with the Guide for the Care and Use of Laboratory Animals (NIH Publication 86-23) and were approved by the Johns Hopkins University Institutional Animal Care and Use Committee. Six to eight week old mice were implanted subcutaneously on one flank with 3 to 6 million cancer cells. Establishment of tumors of 150 to 500 mm3 took 8 to 21 days, depending on the cell type. C. novyi-NT spores (300×106) and anti-microtubule agents were generally administered by a single intravenous injection through the tail vein in a total volume of 300 to 500 ul phosphate-buffered saline (PBS). Quantitative assessment of tumor growth was performed by measuring subcutaneous tumor grafts (major and minor axis) using electronic calipers. Tumor volume was calculated using the equation: length×width2×0.5. Progression free survival was defined as the length of time following treatment before any increase in tumor volume was observed. Mice were considered “cured” if no tumor was evident three months after treatment. […]

[3] = Mortality following COBALT; type: in vivo, nude mice; conditions: deaths within one week, pooled xenograft models
Text: as §1
(§2) This toxicity was observed only when the combination of C. novyi-NT spores and the drugs was administered and not with either the bacteria or the drugs alone. […] Though major tumor regressions were common, few mice died as a result of therapy (Table 2) No deaths occurred after treatment with the microtubule stabilizers plus C. novyi-NT, while 4% to 8% of mice treated with microtubule destabilizers plus C. novyi-NT died. The only other toxicity observed was transient weight loss (Table 3). Mice treated with the drugs alone lost ˜5 to 10% of their body weight within 7 days, while weight loss after treatment with C. novyi-NT plus these drugs varied from 8% to 18%. All weights recovered to pre-treatment levels within two weeks.

Weight loss after COBALT = type: in vivo, nude mice; conditions: drug dose 24.0 mg/kg; maximum average weight loss relative to weight one day prior to treatment; HCT116 xenografts
Text: as §1, §2

[4] = 5 mg/kg × 1 (ip) with 3×108 C. novyi-NT spores iv
[5] = 10 mg/kg × 1 (ip) with 3×108 C. novyi-NT spores iv
[6] = 15 mg/kg × 1 (iv) with 3×108 C. novyi-NT spores iv
[7] = 20 mg/kg × 1 (iv) with 3×108 C. novyi-NT spores iv

With `CC[C@H](C)[C@@H]([C@@H](CC(=O)N1CCC[C@H]1[C@H](OC)[C@@H](C)C(=O)NCCc1ccccc1)OC)N(C)C(=O)[C@@H](NC(=O)[C@H](C(C)C)N(C)C)C(C)C` [auristatin PE] the “Effect with C. novyi-NT” value ([1]; 2 (2.0) mg/kg × 1 (iv) with 3×108 C. novyi-NT spores iv) was “+” and the Effect alone ([1]; 2 (2.0) mg/kg × 1 (iv)) was 0.

In the case of `COc1cc2c(c(OC)c1OC)-c1ccc(OC)c(=O)cc1[C@@H](NC(C)=O)CC2` [colchicine], the “Effect with C. novyi-NT” value [1, 4] is reported as “+”, the “Effect with C. novyi-NT” value [1, 5] is reported as “+” and the “Effect with C. novyi-NT” value ([1]; 20 mg/kg × 1 (ip) with 3×108 C. novyi-NT spores iv) is reported as “++ (10% to 50% shrinkage in tumor volume relative to pre-treatment size)”. For the same compound, the Effect alone ([1]; 5 mg/kg × 1 (ip)) was “+”, the Effect alone ([1]; 10 mg/kg × 1 (ip)) was “+” and the Effect alone ([1]; 20 mg/kg × 1 (ip)) was “++ (10% to 50% shrinkage in tumor volume relative to pre-treatment size)”.

For `C=C/C=C\[C@H](C)[C@H](OC(N)=O)[C@@H](C)[C@H](O)[C@@H](C)C/C(C)=C\[C@H](C)[C@@H](O)[C@@H](C)/C=C\[C@@H](O)C[C@@H]1OC(=O)[C@H](C)[C@@H](O)[C@H]1C` [discodermolide], the “Effect with C. novyi-NT” value [1, 6] was “++++ (>20% cures)”, the “Effect with C. novyi-NT” value [1, 7] was “++++ (>20% cures)” and the Effect alone ([1]; 15 mg/kg × 1 (iv)) was “++ (10% to 50% shrinkage in tumor volume relative to pre-treatment size)”. The Effect alone ([1]; 20 mg/kg × 1 (iv)) was “++ (10% to 50% shrinkage in tumor volume relative to pre-treatment size)”.

In the case of `CC[C@H](C)[C@@H]([C@@H](CC(=O)N1CCC[C@H]1[C@H](OC)[C@@H](C)C(=O)N[C@@H](Cc1ccccc1)c1nccs1)OC)N(C)C(=O)[C@@H](NC(=O)[C@H](C(C)C)N(C)C)C(C)C` [dolastatin 10], the “Effect with C. novyi-NT” value ([1]; 0.30 mg/kg × 1 (iv) with 3×108 C. novyi-NT spores iv) is reported as “+++ (>50% shrinkage in tumor volume relative to pre-treatment size)”, the “Effect with C. novyi-NT” value ([1]; 0.45 mg/kg × 1 (iv) with 3×108 C. novyi-NT spores iv) is reported as “+++ (>50% shrinkage in tumor volume relative to pre-treatment size)” and the Effect alone ([1]; 0.30 mg/kg × 1 (iv)) is reported as 0. The Effect alone ([1]; 0.45 mg/kg × 1 (iv)) was 0.

For `CC[C@]1(O)C[C@@H]2CN(CCc3c([nH]c4ccccc34)[C@@](C(=O)OC)(c3cc4c(cc3OC)N(C)[C@H]3[C@@](O)(C(=O)OC)[C@H](OC(C)=O)[C@]5(CC)C=CCN6CC[C@]43[C@@H]65)C2)C1` [vinblastine], the “Effect with C. novyi-NT” value [1, 4] was 0, the “Effect with C. novyi-NT” value [1, 5] was “+” and the Effect alone ([1]; 5 mg/kg × 1 (ip)) was 0. For the same compound, the Effect alone ([1]; 10 mg/kg × 1 (ip)) was “+”.

With `CC[C@]1(O)C[C@H]2CN(CCc3c([nH]c4ccccc34)[C@@](C(=O)OC)(c3cc4c(cc3OC)N(C=O)[C@H]3[C@@](O)(C(=O)OC)[C@H](OC(C)=O)[C@]5(CC)C=CCN6CC[C@]43[C@@H]65)C2)C1` [vincristine] the “Effect with C. novyi-NT” value [1, 4] was 0, the “Effect with C. novyi-NT” value [1, 5] was “+” and the Effect alone ([1]; 5 mg/kg × 1 (ip)) was 0. The Effect alone ([1]; 10 mg/kg × 1 (ip)) was 0.

With `O=C(Nc1ccncc1)C(=O)c1cn(Cc2ccc(Cl)cc2)c2ccccc12` [D-24851] the “Effect with C. novyi-NT” value ([1]; 25 mg/kg × 1 (ip) with 3×108 C. novyi-NT spores iv) was “+”, the “Effect with C. novyi-NT” value ([1]; 100 mg/kg × 1 (ip) with 3×108 C. novyi-NT spores iv) was “+” and the Effect alone ([1]; 25 mg/kg × 1 (ip)) was 0. It also gave an Effect alone ([1]; 100 mg/kg × 1 (ip)) of 0.

In the case of `CC(=O)O[C@H]1C(=O)[C@@]2(C)[C@H]([C@H](OC(=O)c3ccccc3)[C@]3(O)C[C@H](OC(=O)[C@H](O)[C@@H](NC(=O)c4ccccc4)c4ccccc4)C(C)=C1C3(C)C)[C@]1(OC(C)=O)CO[C@@H]1C[C@@H]2O` [paclitaxel], the “Effect with C. novyi-NT” value [1, 6] is reported as 0, the “Effect with C. novyi-NT” value ([1]; 30 mg/kg × 1 (iv) with 3×108 C. novyi-NT spores iv) is reported as “+” and the Effect alone ([1]; 15 mg/kg × 1 (iv)) is reported as 0. For the same compound, the Effect alone ([1]; 30 mg/kg × 1 (iv)) was 0.

In the case of `CC[C@H](C)[C@@H]([C@@H](CC(=O)N1CCC[C@H]1[C@H](OC)[C@@H](C)C(=O)N[C@@H](Cc1ccccc1)C(=O)OC)OC)N(C)C(=O)[C@@H](NC(=O)[C@H](C(C)C)N(C)C)C(C)C` [auristatin PHE] (NMe2Val-V[Dil][Dolaproine]F-OMe), the “Effect with C. novyi-NT” value ([1]; 0.2 mg/kg × 1 (iv) with 3×108 C. novyi-NT spores iv) is reported as “+” and the Effect alone ([1]; 0.2 mg/kg × 1 (iv)) is reported as 0.

With `COc1ccc(/C=C\c2cc(OC)c(OC)c(OC)c2)cc1OP(=O)(O)O` [combretastatin A4P] the “Effect with C. novyi-NT” value ([1]; 50 mg/kg × 1 (ip) with 3×108 C. novyi-NT spores iv) was “+”, the “Effect with C. novyi-NT” value ([1]; 200 mg/kg × 1 (ip) with 3×108 C. novyi-NT spores iv) was “+” and the Effect alone ([1]; 50 mg/kg × 1 (ip)) was 0. The Effect alone ([1]; 200 mg/kg × 1 (ip)) was “+”.

In the case of `NC(=NCCC[C@H](N)C(=O)O)N[N+](=O)[O-]` [L-NNA], the “effect of L-NNA added to C. novyi-NT alone or high doses of HTI-286 plus C. novyi-NT” value [1] is reported as “added little”, the “effect of L-NNA on responses to low doses of HTI-286” value ([1]; L-NNA 10 mg/kg) is reported as “significantly enhanced” and the “effects on tumor growth when administered without the other agent” value [2] is reported as “no significant effects on tumor growth”.

For `CCC1=C[C@@H]2CN(C1)Cc1c([nH]c3ccccc13)[C@@](C(=O)OC)(c1cc3c(cc1OC)N(C)[C@H]1[C@@](O)(C(=O)OC)[C@H](OC(C)=O)[C@]4(CC)C=CCN5CC[C@]31[C@@H]54)C2` [vinorelbine], the “Effect with C. novyi-NT” value ([1]; 16 mg/kg × 1 (iv) with 3×108 C. novyi-NT spores iv) was “++ (10% to 50% shrinkage in tumor volume relative to pre-treatment size)”, the “Effect with C. novyi-NT” value [1, 7] was “+++ (>50% shrinkage in tumor volume relative to pre-treatment size)” and the “Effect with C. novyi-NT” value ([1]; 24 mg/kg × 1 (iv) with 3×108 C. novyi-NT spores iv) was “+++ (>50% shrinkage in tumor volume relative to pre-treatment size)”. The Effect alone ([1]; 16 mg/kg × 1 (iv)) was “+”, the Effect alone ([1]; 20 mg/kg × 1 (iv)) was “+” and the Effect alone ([1]; 24 mg/kg × 1 (iv)) was “+”. The “# dead (treatment-related deaths)” value ([3]; drug dose 16.0 mg/kg) was 0, the “# dead (treatment-related deaths)” value ([3]; drug dose 20.0 mg/kg) was 0 and the “# dead (treatment-related deaths)” value ([3]; drug dose 24.0 mg/kg) was 0. The “Weight Loss (%)” value (Weight loss after COBALT) was 8.3%.

For arsenic trioxide, the “Effect with C. novyi-NT” value [1, 5] was “+” and the Effect alone ([1]; 10 mg/kg × 1 (ip)) was 0.

With `C/C(=C\c1csc(C)n1)[C@@H]1C[C@@H]2O[C@]2(C)CCC[C@H](C)[C@H](O)[C@@H](C)C(=O)C(C)(C)[C@@H](O)CC(=O)O1` [epothilone B] the “Effect with C. novyi-NT” value ([1]; 25 mg/kg QD × 4 (ip) with 3×108 C. novyi-NT spores) was “+”.

For `COc1ccc2c(c1OC)C(=O)O[C@@H]2[C@H]1c2c(cc3c(c2OC)OCO3)CCN1C` [noscapine], the “Effect with C. novyi-NT” value ([1]; 50 mg/kg × 1 (iv) with 3×108 C. novyi-NT spores iv) was “+”, the “Effect with C. novyi-NT” value ([1]; 70 mg/kg × 1 (iv) with 3×108 C. novyi-NT spores iv) was “+” and the Effect alone ([1]; 50 mg/kg × 1 (iv)) was 0. The Effect alone ([1]; 70 mg/kg × 1 (iv)) was 0.

In the case of `C=CC=CC(C)C(OC(N)=O)C(C)C(O)C(C)CC=CC(C)C(O)C(C)C=CC(O)CC1OC(=O)C(C)C(O)C1C` (single isomer, unassigned; (+)) [(+)-14-normethyldiscodermolide], the “Effect with C. novyi-NT” value [1, 6] is reported as “+” and the Effect alone ([1]; 15 mg/kg × 1 (iv)) is reported as “+”.
